Test results: US20260108503A1, “POLYMERIC MICELLE NANOCARRIERS FOR TARGETED EPIDERMAL DELIVERY OF THE HEDGEHOG PATHWAY INHIBITOR TAK-441” (UNIVERSITÉ DE GENÈ DE GENÈVE, priority 2022, published 2026)
Entries after “also recorded” stand apart in the source; their conditions may differ.

Columns and labels:
[1] = biological target: vismodegib-resistant SMO mutant D473H (Homo sapiens, UniProt Q99835, D473H); conditions: cited from earlier work
[2] = Cutaneous delivery and biodistribution in vitro, Franz-type diffusion cells, human skin; format: in vitro ADME
Procedure: Human skin samples were obtained shortly after surgery from the Department of Plastic, Aesthetic and Reconstructive Surgery, Geneva University Hospital (Geneva, Switzerland), fatty tissue was removed and the skin was stored at −20° C. The donation was approved by the Central Committee for Ethics in Research (CER: 08-150 (NAC08-051); Geneva University Hospital).
The experiments were performed using standard two-compartment vertical (Franz-type) diffusion cells, (Milian SA; Meyrin, Switzerland) with a cross-sectional area of 2 cm^2. The receptor compartment consisted of 10-mL Dulbecco's phosphate-buffered saline (DPBS) pH 7.4 containing 1% BSA to maintain sink conditions. The receiver compartment was maintained between 32° C.-34° C. For infinite dose conditions, 200 μL of TAK-441 micelle formulation (3 mg/mL) was applied to the skin sample surface (i.e., 300 μg of TAK-441/cm^2 of the skin surface) and for finite dose, 20 μL of micelle formulation (3 mg/mL) was applied (30 μg of TAK-441/cm^2 of the skin surface). […]
(§1) TAK-441 had the least solubility in HPC; this characteristic would minimize the risk of interference of the suspending agent on drug delivery. […] After centrifugation at 10,000 rpm for 15 min, the permeation samples were analyzed by UHPLC-MS/MS. […]
(§2) Upon completion of the experiment, a punch was used to separate the skin sample into two parts—an inner disk with a surface area of 0.785 cm^2 and a remaining outer ring with an area of 1.215 cm^2. This outer ring was subsequently cut into small pieces, and TAK-441 deposited in the tissue was extracted by the validated extraction method (section 1.4.5.2) followed by quantification using UHPLC-MS/MS.
The 0.785-cm^2 disks were used to determine the TAK-441 biodistribution as a function of depth in the skin. […] These lamellae enabled the amounts of TAK-441 to be determined as a function of position in the skin, encompassing the stratum corneum, epidermis, and upper dermis, respectively. Each lamella and the remaining dermis were individually extracted in 250-μL methanol for 4 h and TAK-441 was quantified by UHPLC-MS/MS.

[3] = cited from earlier work
Gli1 expression = conditions: oral, all doses (50 mg/day to 1600 mg/day); cited from earlier work
HH pathway = conditions: NIH3T3 cells, Gli-reporter luciferase; read-out: IC50, inhibition of the hedgehog pathway; cited from earlier work
[4] = cited from earlier work; remark: listed apart in the source
[5] = Cutaneous delivery and biodistribution in vitro, Franz-type diffusion cells, porcine skin; format: in vitro ADME; conditions: 12 h application
Excerpt: Porcine ears were purchased from a local abattoir (CARRE; Rolle, Switzerland) shortly after sacrifice. After washing under running cold water, skin samples with a thickness of approximately 0.8 mm were carefully harvested from the outer region of the ear using a Zimmer air dermatome (Münsingen, Switzerland). Hair was removed from the skin surface using clippers. Discs corresponding to the permeation area were punched out (Berg & Schmid HK 500; Urdorf, Switzerland). Skin samples were frozen at −20° C. and stored for a maximum period of 3 months. Before the experiment, skin samples were thawed at room temperature and placed for 15 min in 0.9% saline solution for rehydration. […]
as §1
as §2, with “UHPLC-MS/MS. […]” for “UHPLC-MS/MS.”

[6] = Determination of TAK-441 content in the micelles (UHPLC-MS/MS); format: physicochemical; conditions: incorporation of TAK-441 in TPGS micelles
Procedure: TAK-441 loaded into the micelles was quantified by UHPLC-MS/MS. To ensure complete micelle destruction and release of the incorporated drug, formulations were diluted in acetonitrile and analyzed. The drug content, drug loading, and entrapment efficiency were calculated using equations 1-3: […]

[7] = human, in vivo; cited from earlier work

vismodegib-resistant SMO mutant D473H, sequence (Q99835 28-787 D473H): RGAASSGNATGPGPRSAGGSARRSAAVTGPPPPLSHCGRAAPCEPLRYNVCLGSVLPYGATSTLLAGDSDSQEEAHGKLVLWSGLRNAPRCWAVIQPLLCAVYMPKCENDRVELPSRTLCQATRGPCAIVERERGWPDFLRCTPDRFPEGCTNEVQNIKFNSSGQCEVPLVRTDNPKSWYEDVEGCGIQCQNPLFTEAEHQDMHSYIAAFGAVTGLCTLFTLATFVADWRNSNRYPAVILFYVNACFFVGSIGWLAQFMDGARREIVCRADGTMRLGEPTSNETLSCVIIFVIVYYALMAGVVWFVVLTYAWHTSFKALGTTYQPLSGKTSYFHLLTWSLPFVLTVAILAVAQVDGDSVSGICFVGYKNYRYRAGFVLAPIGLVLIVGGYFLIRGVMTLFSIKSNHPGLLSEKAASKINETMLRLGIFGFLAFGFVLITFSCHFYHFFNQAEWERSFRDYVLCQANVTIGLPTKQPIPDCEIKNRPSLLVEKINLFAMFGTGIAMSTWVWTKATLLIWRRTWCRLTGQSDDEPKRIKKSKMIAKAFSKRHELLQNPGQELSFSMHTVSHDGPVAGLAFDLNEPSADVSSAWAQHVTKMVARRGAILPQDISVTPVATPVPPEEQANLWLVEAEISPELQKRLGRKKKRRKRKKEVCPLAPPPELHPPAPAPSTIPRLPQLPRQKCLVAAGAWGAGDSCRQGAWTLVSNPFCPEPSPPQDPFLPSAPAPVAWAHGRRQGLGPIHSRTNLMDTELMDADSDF

Structure (SMILES)	activity against vismodegib-resistant Smoothened receptor D473H mutant [1]	cumulative permeation ([2]; conclusion, corresponding to LOD) [pg/cm^2]	concentrations in the permeation samples (below LOD) ([2]; conclusion, permeation samples, UHPLC-MS/MS) [ng/mL]	transdermal permeation across human skin ([2]; human skin, 12 h application)	log P [3]	Gli1 expression in skin biopsies (Gli1 expression)	IC50 (HH pathway) [nM]	death assessed to be study drug-related ([4]; cerebral hemorrhage, patient with pancreatic cancer)	patients who experienced at least one adverse effect (AE) ([4]; oral, Phase I)	patients who experienced serious AE ([4]; oral, Phase I)	cumulative permeation (receiver compartment below LOD) [5] [pg/cm^2]	increase of aqueous solubility [6]	treatment outcome in patients with resistance to vismodegib [7]
CCc1cc2c(c(OCC(F)(F)F)c(C(=O)NC3CCN(C(=O)CO)CC3)n2C)c(=O)n1CC(=O)c1ccccc1 [TAK-441]	active; also recorded: effective	< 0.1	< 1.29	below the LOD	2.61	strongly inhibited	4.4	One death	All patients	Approximately 35%	< 0.1	approximately 40 fold	
Cc1c(C(=O)Nc2ccc(N3C[C@@H](C)O[C@@H](C)C3)nc2)cccc1-c1ccc(OC(F)(F)F)cc1 [sonidegib]													ineffective
